Reference: patent publication US20140235444A1, “SYNERGISTIC SUPRESSION OF GRASS SEEDHEAD PRODUCTION FROM APPLICATIONS OF AMINOCYCLOPYRACHLOR AND METSULFURON” (Dow AgroSciences LLC, priority 2013, published 2014)

Test system: X fescue in a Kentucky blue grass mix
Experiment: Field trial, prevention or suppression of grass seedhead production, postemergence foliar application
Assay type: in vivo
Conditions: 12 days after application, scale 0-100% vs untreated control
Experimental: Field trials were conducted with applications made to established pastures having X fescue in a Kentucky blue grass mix. The target plants were treated with postemergence foliar applications when they were approximately 6-10 inches tall. All treatments were applied using a randomized complete block trial design, with four replications per treatment.
Treatments consisted of aminocyclopyrachlor in acid form and metsulfuron-methyl, each in water and applied alone or in combination. Spray solutions were prepared using an appropriate amount of dilution to form a 1 liter (L) aqueous spray solution with active ingredients in single and two-way combinations. Formulated compounds were applied to the plant material with a backpack sprayer equipped with 8003 flat fan nozzles calibrated to deliver 20 gallons per acre (gal/acre) or 187 liters per hectare (L/ha) at a spray height of 15 inches (38.1 centimeters (cm)) above the grass.
The treated plots and control plots were rated blind at various intervals after application. […]
Colby's equation was used to determine the seedhead-suppressant effects expected from the mixtures, as described above. The results were measured at 12 days after the first application of the compositions. […]

Row | Compound | Mean % seedhead suppression (Aminocyclopyrachlor alone, 70 g ae/ha) | Mean % seedhead suppression (Metsulfuron-Methyl alone, 13 g ae/ha)
1 | Nc1nc(C2CC2)nc(C(=O)O)c1Cl [Aminocyclopyrachlor, 6-amino-5-chloro-2-cyclopropylpyrimidine-4-carboxylic acid] | 5.0% | 
2 | Metsulfuron-Methyl |  | 80.0%
